Experimental data taken from US20050222235A1, “Drugs for improving the prognosis of brain injury and a method of screening the same” (priority 2002, published 2005).

Tests used:
Type in all cases: in vivo, mouse
Stab wound model mice [1] = test: Stab wound model of traumatic brain injury: recovery / progress of brain injury (histology)
Stab wound model mice [2] = test: Stab wound model: Evans Blue dye leakage to the injured site; conditions: for leakage of the dye to the injured site: Stab wound model mice, Evans Blue after 2 days
Description: Degree of injury was quantified by a dye leakage (Evans Blue) to the injured site (Kakimura Y, et al., Nature Medicine, 4:1078-1080, 1998). After 2 days from injury, the maximum value was noted and, after that, it lowered as a result of recovery (refer to FIG. 20).
An effect of BW A868C or ramatroban ((±)-(3R)-3-(4-fluorobenzenesulfonamide)-1,2,3,4-tetrahydrocarbazol-9-propionic acid) which is an antagonist for prostaglandin D receptor to Stab wound model mice was evaluated using leakage amount of dye to the injured site as an index. Thus, Evans Blue dye was intravenously administered after 2 days from occurrence of brain injury and the amount of leakage of the dye to the tissue during 2 hours thereafter was measured. When BW A868C (1 mg/kg) was intravenously administered after 3 hours and after one day from occurrence of the brain injury, leakage of the dye to the injured site was suppressed (refer to FIG. 27).
An effect of pinagladin which is a DP receptor antagonist to a Stab wound model was evaluated by a leakage amount of dye to the injured site. Thus, Evans Blue was intravenously injected on the second day after occurrence of brain injury and leakage amount of the dye into the tissue during 2 hours thereafter was measured. As a result, when pinagladin (10 mg/kg) was orally administered before 1 hour and after one day of the occurrence of the injury, an increase in leakage amount of Evans Blue dye noted as a result of brain injury was suppressed (refer to FIG. 24).

Twitcher mice = Twitcher mice (hereditary demyelinating disease): astroglia activation and DP receptor expression; conditions: subcutaneous 30 mg/kg/day for 14 days
Source text: Changes in mRNA of H-PGDS and DP receptor as a result of demyelination were quantified by a quantitative RT-PCR method using a model mouse Twitcher of human Krabbe diseases which is a disease where galactosylceramidase is deficient (Kobayashi T, et al., Brain Res., 202:479-483, 1980; Duchen L W, et al., Brain, 103:695-710, 1980; Sakai N, et al., J. Neurochem., 66:1118-1124, 1996; Taniike M et al., J. Neuropathol. Exp. Neurol., 58:644-653, 1999) (refer to FIG. 1). Expression of mRNA of both H-PGDS and DP receptor increased as a result of demyelination.
HQL-79 (4-benzhydryloxy-1-{3-(1H-tetrazol-5-yl)-propyl}piperidine) which is an H-PGDS inhibitor was subcutaneously administered to Twitcher mice at the dose of 30 mg/kg/day for 14 days whereupon activation of astroglia cells was suppressed and, at the same time, expression of DP receptor in astroglia cells lowered (refer to FIG. 13).

DP receptor = test: Stab wound model: DP receptor mRNA in tissue injury region; conditions: oral 30 mg/kg/day for 4 days from one hour before injuring
[3] = traumatic brain injury, administration started after 24 hours from injury

SMILES: O=C(O)CCCCCCC1C(=O)N(Cc2ccccc2)C(=O)N1NCC(O)C1CCCCC1 (racemic) [BW A868C, (±)-3-benzyl-5-(6-carboxyhexyl)-1-(2-cyclohexyl-2-hydroxyethylamino)-hydantoin]
- recovery of brain injury (Stab wound model mice [1]; Stab wound model mice, intravenous 1 mg/kg/day for 4 days from the initial day of injury): promotion of recovery
- leakage of the dye to the injured site (Stab wound model mice [2]; 1 mg/kg intravenous after 3 hours and after one day from injury, leakage during 2 hours): suppressed

SMILES: c1ccc(C(OC2CCN(CCCc3nnn[nH]3)CC2)c2ccccc2)cc1 [HQL-79, 4-benzhydryloxy-1-{3-(1H-tetrazol-5-yl)-propyl}piperidine]
- activation of astroglia cells (Twitcher mice): suppressed
- expression of DP receptor in astroglia cells (Twitcher mice): lowered
- recovery of brain injury (Stab wound model mice [1]; Stab wound model, oral 30 mg/kg/day for 4 days from one hour before injuring): promotion of recovery
- tissue injury (expansion of injury) (Stab wound model mice [1]; [3]): inhibitory effect
- amount of mRNA of DP receptor in tissue injury region (DP receptor): lowered
- leakage reaction of dye to the injured site (Stab wound model mice [2]; Stab wound model, oral 30 mg/kg/day, administration started one hour before injury): therapeutic effect was also confirmed
- tissue injury (leakage of dye) (Stab wound model mice [2]; [3]): inhibitory effect

SMILES: CC1(C)[C@H]2C[C@H](C/C=C\CCCC(=O)O)[C@@H](NC(=O)c3csc4ccccc34)[C@@H]1C2 [pinagladin, (Z)-7-[(1R,2R,3S,5S)-2-(benzo[b]-thiophene-3-ylcarbonylamino)-10-norpinan-3-yl]hepta-5-enoic acid]
- progress of brain injury (histopathological investigation) (Stab wound model mice [1]; Stab wound model, in any of administration routes): suppressed the progress of brain injury
- increase in leakage amount of Evans Blue dye as a result of brain injury (Stab wound model mice [2]; Stab wound model, 10 mg/kg oral before 1 hour and after one day of injury, Evans Blue on second day, leakage during 2 hours): suppressed

SMILES: O=C(O)CCn1c2c(c3ccccc31)C[C@H](NS(=O)(=O)c1ccc(F)cc1)CC2 [ramatroban, (+)-(3R)-3-(4-fluorobenzenesulfonamide)-1,2,3,4-tetrahydrocarbazol-9-propionic acid]
- leakage of the dye to the injured site (Stab wound model mice [2]; 30 mg/kg oral after 3 hours and after one day from injury, leakage during 2 hours): suppressed
